# Where two headings read alike, the source gives them in different places.
# Experiments:
# [1] = tested on: E. coli strains with elevated MICs to Polymyxin B; assay: MIC against strains with elevated MICs to Polymyxin B; type: cell-based, Escherichia coli; conditions: Table 6D; for MIC E. coli 058: strain 058, elevated MIC to Polymyxin B; for MIC E. coli 059: strain 059, elevated MIC to Polymyxin B; for MIC E. coli 060: strain 060, elevated MIC to Polymyxin B
# Protocol: (§1) The inoculum was prepared by making a direct suspension of isolated colonies (selected from an 18-24 hour Mueller-Hinton agar plate) adjusted to the 0.5 McFarland standard. […] The assays were performed in duplicate. […] In cases where the duplicate values varied by less than 2-fold, the lower of the two values is reported. If a variation of greater than 2-fold was observed, the assay was considered non-valid. Several of the compounds were subjected to multiple tests, and where this is the case, the MIC reflects the modal value obtained.
# (§2) The Further Synthesis Examples were tested against a range of Gram negative bacteria, and tested for HK-2 cell toxicity. All the worked examples, including the Synthesis and Further Synthesis Examples, were also tested against a range of Gram negative bacteria that are resistant to Polymyxin B (i.e. those strains where Polymyxin B has an elevated MIC value).
# [2] = tested on: K. pneumoniae strains with elevated MICs to Polymyxin B; assay: as above; type: cell-based, Klebsiella pneumoniae; conditions: Table 6D; for MIC K. pneumoniae 063: strain 063, elevated MIC to Polymyxin B; for MIC K. pneumoniae 655: strain 655, elevated MIC to Polymyxin B
# Protocol: as §1, §2
# [3] = tested on: A. baumanii strains with elevated MICs to Polymyxin B; assay: as above; type: cell-based, Acinetobacter baumannii; conditions: Table 6D; for MIC A. baumannii 053: strain 053, elevated MIC to Polymyxin B; for MIC A. baumannii 068: strain 068, elevated MIC to Polymyxin B
# Protocol: as §1, §2
# [4] = tested on: P. aeruginosa strains with elevated MICs to Polymyxin B; assay: MIC against strains with elevated MICs to Polymyxin B; type: cell-based, Pseudomonas aeruginosa; conditions: Table 6D; for MIC P. aeruginosa 065: strain 065, elevated MIC to Polymyxin B
# Protocol: as §1, §2
# [5] = absence of a second agent, Table 6B
Substance,"MIC, A. baumannii ATCC BAA-747 (A. baumannii; sole activity, Table 6C)","MIC, P. aeruginosa ATCC 27853 (P. aeruginosa; sole activity, Table 6C)","MIC, P. aeruginosa CCUG 59347 (P. aeruginosa; sole activity, Table 6C)","MIC, E. coli ATCC 25922 (E. coli; sole activity, Table 6C)",MIC E. coli 058 [1],MIC P. aeruginosa 065 [4],"MIC, A. baumannii ATCC BAA-747 (A. baumannii; [5])","MIC, P. aeruginosa ATCC 27853 (P. aeruginosa; [5])","MIC, P. aeruginosa CCUG 59347 (P. aeruginosa; [5])","MIC, E. coli ATCC 25922 (E. coli; [5])","MIC, E. coli NCTC 13441 (E. coli; [5])","MIC, K. pneumoniae ATCC BAA-2146 (K. pneumoniae; [5])","MIC, A. baumannii NCTC 13424 (A. baumannii; [5])","MIC, K. pneumoniae ATCC 4352 (K. pneumoniae; [5])",further results
1-(2- hydroxybenzyl)pi- perazine-2- carbonyl Polymyxin B nonapeptide [Example D67],0.5 micrograms/mL,0.25 micrograms/mL,0.5 micrograms/mL,0.06 micrograms/mL,8 micrograms/mL,4 micrograms/mL,–,–,–,–,–,–,–,–,"MIC, A. baumannii NCTC 13424 (A. baumannii; sole activity, Table 6C): 0.25 micrograms/mL; MIC, E. coli NCTC 13441 (E. coli; sole activity, Table 6C): 0.125 micrograms/mL; MIC E. coli 059 [1]: 64 micrograms/mL; MIC E. coli 060 [1]: 16 micrograms/mL; MIC K. pneumoniae 063 [2]: 128 micrograms/mL; MIC A. baumannii 053 [3]: >256 micrograms/mL; MIC A. baumannii 068 [3]: 64 micrograms/mL; MIC, K. pneumoniae ATCC 4352 (K. pneumoniae; sole activity, Table 6C): 0.03 micrograms/mL; MIC, K. pneumoniae ATCC BAA-2146 (K. pneumoniae; sole activity, Table 6C): 0.06 micrograms/mL"
1-(2- trifluoromethylben- zyl)piperazine- 2-carbonyl polymyxin E nonapeptide [Example D72],0.125 micrograms/mL,0.5 micrograms/mL,1 micrograms/mL,0.25 micrograms/mL,–,–,–,–,–,–,–,–,–,–,"MIC, E. coli NCTC 13441 (E. coli; sole activity, Table 6C): 0.25 micrograms/mL; MIC E. coli 059 [1]: 16 micrograms/mL; MIC E. coli 060 [1]: 8 micrograms/mL; MIC E. coli 061 ([1]; strain 061, elevated MIC to Polymyxin B): 16 micrograms/mL; MIC K. pneumoniae 062 ([2]; strain 062, elevated MIC to Polymyxin B): 64 micrograms/mL; MIC K. pneumoniae 063 [2]: 32 micrograms/mL; MIC K. pneumoniae 655 [2]: 64 micrograms/mL; MIC A. baumannii 053 [3]: >128 micrograms/mL; MIC A. baumannii 056 ([3]; strain 056, elevated MIC to Polymyxin B): 128 micrograms/mL; MIC A. baumannii 068 [3]: 64 micrograms/mL; MIC A. baumannii 070 ([3]; strain 070, elevated MIC to Polymyxin B): 128 micrograms/mL; MIC, K. pneumoniae ATCC 4352 (K. pneumoniae; sole activity, Table 6C): 0.125 micrograms/mL; MIC, K. pneumoniae ATCC BAA-2146 (K. pneumoniae; sole activity, Table 6C): 0.25 micrograms/mL"
(S)-4-amino-2- (((S)-6- methyloctanoyl)ox- y)butanoyl polymyxin B nonapeptide [Example D93],0.25 micrograms/mL,0.25 micrograms/mL,1 micrograms/mL,0.25 micrograms/mL,8 micrograms/mL,2 micrograms/mL,–,–,–,–,–,–,–,–,"MIC, A. baumannii NCTC 13424 (A. baumannii; sole activity, Table 6C): 0.5 micrograms/mL; MIC, K. pneumoniae ATCC 4352 (K. pneumoniae; sole activity, Table 6C): 0.25 micrograms/mL"
(cis-5- cyclohexylpiperidine)- 3-carbonyl L-Thr-L- Dap-polymyxin B heptapeptide [Example D44],–,–,–,–,2 micrograms/mL,1 micrograms/mL,0.25 micrograms/mL,0.25 micrograms/mL,0.5 micrograms/mL,1 micrograms/mL,0.5 micrograms/mL,0.5 micrograms/mL,–,–,"MIC K. pneumoniae 064 ([2]; strain 064, elevated MIC to Polymyxin B): 2 micrograms/mL; MIC K. pneumoniae 655 [2]: 32 micrograms/mL; MIC P. aeruginosa 066 ([4]; strain 066, elevated MIC to Polymyxin B): 0.5 micrograms/mL; MIC P. aeruginosa 067 ([4]; strain 067, elevated MIC to Polymyxin B): 64 micrograms/mL"
(cis-5-(2-methylpropyl) piperidine)-3-carbonyl polymyxin B nonapeptide [Example D48],–,–,–,–,–,–,0.5 micrograms/mL,0.25 micrograms/mL,1 micrograms/mL,0.125 micrograms/mL,0.125 micrograms/mL,0.25 micrograms/mL,0.5 micrograms/mL,0.125 micrograms/mL,–
(cis-6-octylpiperidine)- 3-carbonyl polymyxin B nonapeptide [Example D16],–,–,–,–,–,–,>8 micrograms/mL,8 micrograms/mL,1 micrograms/mL,>8 micrograms/mL,>8 micrograms/mL,>8 micrograms/mL,>8 micrograms/mL,>8 micrograms/mL,–
(cis-6-octylpiperidine)- 3-carbonyl polymyxin B nonapeptide [Example D17],–,–,–,–,–,–,2 micrograms/mL,0.5 micrograms/mL,0.5 micrograms/mL,2 micrograms/mL,2 micrograms/mL,2 micrograms/mL,4 micrograms/mL,2 micrograms/mL,–
(trans-5-(2- methylpropyl) piperidine)-3-carbonyl polymyxin B nonapeptide [Example D49],–,–,–,–,–,–,>8 micrograms/mL,2 micrograms/mL,4 micrograms/mL,8 micrograms/mL,8 micrograms/mL,8 micrograms/mL,>8 micrograms/mL,4 micrograms/mL,–
(trans-6- octylpiperidine)-3- carbonyl polymyxin B nonapeptide [Example D18],–,–,–,–,–,–,>8 micrograms/mL,4 micrograms/mL,2 micrograms/mL,4 micrograms/mL,4 micrograms/mL,>8 micrograms/mL,>8 micrograms/mL,8 micrograms/mL,–
(trans-6- octylpiperidine)-3- carbonyl polymyxin B nonapeptide [Example D19],–,–,–,–,–,–,2 micrograms/mL,0.5 micrograms/mL,1 micrograms/mL,2 micrograms/mL,2 micrograms/mL,4 micrograms/mL,–,2 micrograms/mL,–
Cis-5-(N- isobutylsulfamoyl) piperidine-3- carbonyl L-Thr-L- Dap-polymyxin B heptapeptide [Example D94],0.06 micrograms/mL,0.5 micrograms/mL,1 micrograms/mL,0.03 micrograms/mL,16 micrograms/mL,32 micrograms/mL,–,–,–,–,–,–,–,–,"MIC, A. baumannii NCTC 13424 (A. baumannii; sole activity, Table 6C): 0.06 micrograms/mL"
trans-4- Phenylpyrrolidine-3- carbonyl polymyxin B nonapeptide [Example D1],–,–,–,–,–,–,4 micrograms/mL,0.5 micrograms/mL,2 micrograms/mL,4 micrograms/mL,4 micrograms/mL,1 micrograms/mL,4 micrograms/mL,2 micrograms/mL,–
